Values of other authors in patent publication US9181307B2, “Influenza A 2009 pandemic H1N1 polypeptide fragments comprising endonuclease activity and their use” (priority 2010, dated 2015).

Molecular target: influenza endonuclease (Influenza A virus, UniProt P03433)
Details: recently reported, Kuzuhara 2009; cited from earlier work

**Q.** Which “inhibits the influenza endonuclease” value does the source give for `O=C(O[C@@H]1Cc2c(O)cc(O)cc2O[C@@H]1c1cc(O)c(O)c(O)c1)c1cc(O)c(O)c(O)c1` [EGCG, [(2R,3R)-5,7-dihydroxy-2-(3,4,5-trihydroxyphenyl)chroman-3-yl]3,4,5-trihydroxybenzoate] here?
**A.** Its value is “inhibits the influenza endonuclease”.
